This is an account of results in patent publication US20240366624A1, “METHODS AND COMPOSITIONS FOR TREATING THROMBOTIC DISEASE” (Washington University, priority 2023, published 2024).

“Also recorded” adds a separate entry of the source. Read-outs that look alike come from different tables or passages of the source.

Usually IC50 stands for the point on the concentration scale where inhibition reaches its midpoint.

One test relates to WT (C57BL/6) mice. The test is described as follows: Transient middle cerebral artery occlusion (tMCAO) ischemic stroke model. The conditions noted are these: single iv 5 μg/g BW after tMCAO, 23 hours later. The format is in vivo, mouse. As to the method:
FIG. 19(A-Q) is an exemplary embodiment of B12-5 having an antithrombotic effect without prolonging tail bleeding times in mice in accordance with the present disclosure. FIG. 19(A-C): Ex vivo effects of B12-5. Wild type (WT; C57BL/6) mice were treated with intravenous injection of vehicle (20% polyethylene glycol [PEG]+3% dimethyl sulfoxide [DMSO]) or B12-5 (5 μg/g body weight [BW]). One hour later, blood was drawn, followed by isolating platelets. P-selectin exposure (FIG. 19A) and αIIbβ3 integrin activation (FIG. 19B) were assessed in flow cytometry. FIG. 19C: Platelet aggregation was measured after treatment with 0.025 U/mL thrombin. The data represent the mean±SD (n=4). FIG. 19D: The plasma levels of B12-5 were analyzed by liquid chromatography-tandem mass spectrometry (LC-MS/MS) after intravenous injection of the compound (5 μg/g BW) into WT mice and quantified by comparison with a standard curve of B12-5 (mean±SD, n=3). FIG. 19E and FIG. 19F: After laser-induced cremaster arteriolar injury, intravital microscopy was conducted with WT mice pretreated with intravenous injection of saline, eptifibatide (5 μg/g BW), vehicle, or B12-5 (5 μg/g BW). The median integrated fluorescence intensities of anti-CD42c (F platelet) and anti-fibrin (F fibrin) antibodies (n=37-42 arterioles in 6 mice per group). Quantification of the antibody signal at a different time point after laser injury. FIG. 19G: Comparison of B12-5 (5 μg/g BW) with eptifibatide (5 μg/g BW) and their respective controls in inhibiting FeCl3-induced carotid artery thrombosis in WT mice. FIG. 19H and FIG. 19I: WT mice were treated with intravenous injection of vehicle control, eptifibatide (5 μg/g BW), or B12-5 (5 μg/g BW). Thirty minutes later, tail bleeding times and Hb contents were measured after amputation of the tail tip. Bars represent the median value (FIG. 19(E-1)). FIG. 19J and FIG. 19M: WT control and Ero1α conditional knockout (CKO) and knockout (KO) mice were subjected to transient middle cerebral artery occlusion (tMCAO). Twenty-three hours later, neurological deficits were assessed by the Bederson score and grip test, and infarct volume was measured as described in Methods. FIG. 19N through FIG. 19Q: WT mice were subjected to tMCAO and then treated with saline, vehicle, or B12-5 (5 μg/g BW). Twenty-three hours later, the neurological deficit and infarct volume were measured as described above. FIG. 19K and FIG. 19O: The data represent the mean±SD (n=7-8). FIG. 19L, FIG. 19M, FIG. 19P, and FIG. 19Q: The bar indicates the median with interquartile range. P values determined by unpaired Student t test (FIG. 19(A-C), FIG. 19K, and FIG. 19O) or Mann-Whitney U test (FIG. 19(E-1), FIG. 19L, FIG. 19M, FIG. 19P, and FIG. 19Q). […]

The next test has as its target T1, ERO1α (Homo sapiens, UniProt Q96HE7).
T1 sequence (Q96HE7 24-468): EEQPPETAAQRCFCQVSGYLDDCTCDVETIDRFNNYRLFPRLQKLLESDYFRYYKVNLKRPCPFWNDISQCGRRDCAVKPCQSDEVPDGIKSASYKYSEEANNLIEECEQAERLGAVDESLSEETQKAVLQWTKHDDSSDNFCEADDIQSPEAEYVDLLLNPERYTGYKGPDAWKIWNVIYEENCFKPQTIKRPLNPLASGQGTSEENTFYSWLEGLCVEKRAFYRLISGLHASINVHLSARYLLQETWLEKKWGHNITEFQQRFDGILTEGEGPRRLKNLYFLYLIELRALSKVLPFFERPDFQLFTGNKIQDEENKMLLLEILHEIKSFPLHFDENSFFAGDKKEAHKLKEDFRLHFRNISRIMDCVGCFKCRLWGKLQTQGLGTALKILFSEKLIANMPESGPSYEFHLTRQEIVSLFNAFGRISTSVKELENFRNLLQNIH
Briefly: ERO1α activity assay. The class given is biochemical. The source says:
(§1) FIG. 17(A-F) is an exemplary embodiment of identification of novel ERO1α inhibitors by high throughput screening in accordance with the present disclosure. FIG. 17A: A scheme of an ERO1α activity assay. FIG. 17B: Screening of chemical libraries in the ERO1α activity assay. FIG. 17C: The inhibitory effect of selected compounds on ERO1α activity. FIG. 17D: The inhibitory effect of selected compounds on PDI activity. FIG. 17E: The inhibitory effect of selected compounds on H2O2 activity. FIG. 17F: The inhibitory effect of selected compounds on thiol-reacting activity. The data represent the mean±SD (n=3). *P<0.05, **P<0.01, ***P<0.001, and ****P<0.0001 vs. vehicle control, Student's t-test.
(§2) To identify a novel ERO1α inhibitor, 5800 compounds were screened using an ERO1α activity assay (FIG. 17A and FIG. 17B). […] The selected compounds were further tested in assays measuring PDI, antioxidant, and thiol-reacting activities (FIG. 17D through FIG. 17F). […] B12 inhibited P-selectin exposure and αIIbβ3 activation in agonist-activated mouse and human platelets in a concentration-dependent manner (FIG. 18B through FIG. 18E).

The nature of test [1]: H2O2 (antioxidant) activity assay. The class given is biochemical.
From the text: as §1, §2

Test [2] in a line: thiol-reacting (GSH) activity assay. The format is biochemical.
From the text: as §1, §2

On to `O=C(CSc1nc(O)cc(O)n1)N1c2ccccc2Sc2ccccc21` [B12-5], for which the infarct volume result in the test on WT (C57BL/6) mice is given as “significantly reduced”; in the test on WT (C57BL/6) mice (listed as B112-5) it was “significantly reduces; also recorded: reduced”. Moreover, the “neurological deficits (Bederson score, grip test)” value in the test with WT (C57BL/6) mice was “ameliorated”; in the test on WT (C57BL/6) mice (listed as B112-5), “improves”. For the same compound, the IC50 at ERO1α (read-out: IC50, ERO1α activity) is 7.9 µM; on ERO1α (read-out: IC50, ERO1α inhibitor), 7.9 µM. Moreover, the “H2O2 inhibition at 100 μM (%)” value in test [1] (100 μM) stood at 6.6 ± 2%. The “effect on H2O2 (antioxidant) activity” value in test [1] (at or up to 100 μM) was “minimal effect; also recorded: did not affect”. The “GSH inhibition at 100 μM (%)” value in test [2] (100 μM) is 9.7 ± 2%. Also, in test [2] (at or up to 100 μM), the “effect on thiol-reacting activity” value is recorded as “minimal effect; also recorded: did not affect”.
